Experimental data taken from publication PMC11899342, “Novel Triazeneindole Antibiotics: Synthesis and Hit-to-Lead Optimization” (International Journal of Molecular Sciences, 2025).
≈ marks a conversion by molar mass, not a printed value. Read-outs that look alike come from different tables or passages of the source.

Experiments:
[1] = test system: MRSA clinical isolates; test: MIC by broth microdilution against multidrug-resistant MRSA clinical isolates; type: cell-based, Staphylococcus aureus; conditions: for MIC: Staphylococcus aureus
Outline: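 Multidrug-resistant clinical MRSA isolates, 1 × 10^6 CFU/mL suspension in Mueller Hinton broth, broth microdilution with compounds at final 1, 0.5, 0.25 and 0.125 mg/L. Incubated 18 h at 37 °C; MIC taken as lowest concentration with no visible growth, triplicate.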

[2] = test system: human embryonic fibroblasts (HEFs); test: MTT cytotoxicity on human embryonic fibroblasts; type: cell-based; conditions: Homo sapiens, Fibroblast, 24 h, ND = non-toxic in tested concentrations (up to 50 mg/L)
Method: (§1) The primary screening of 22 substances was performed on human embryonic fibroblasts (HEFs). […] The HepG2 cell line was obtained from the American Type Culture Collection (ATCC cat. # HB-8065). The primary HEF cells (normal human embryonic fibroblasts) were derived from human embryonic stem cells. The cells were cultured in DMEM/F12 (1:1) medium containing 10% fetal bovine serum (Invitrogen, Carlsbad, CA, USA) at 37 °C and 5% CO2, according to standard mammalian tissue culture protocols and sterile technique. […] The incubation time with the substance was 24 h for all substances and cell lines. Cell detachment by trypsin, centrifugation, and counting in a hemocytometer were performed 16 h before the addition of the substance. For correct counting of the HepG2 cells, the cell suspension was passed through a syringe needle to get rid of cell aggregates. The cells were placed in the wells of a 96-well plate. The number of cells was selected according to the properties of the cell line and the final optical density in the experiment. Fibroblasts and hepatocytes were used in the amount of 10 thousand cells per well in 100 μL of DMEM/F12 medium supplemented with 10% fetal bovine serum. The substances were added to 100 µL of medium in the wells so that the final concentrations were 50, 25, 12.5, 6.25, 3.125, and 1.62 mg/L. The final well volume was 200 µL. The medium containing fetal bovine serum, without added substances, was used as a negative control. After 24 h, excessive amounts of medium were discarded. A total of 30 µL of MTT solution (5 mg/mL in PBS) was added to each well. After the precipitation of formazan crystals (3 h incubation), they were dissolved using 100 μL of dimethyl sulfoxide. The optical density (OD) was measured at 570 nm using a microplate reader (Eppendorf). For every condition, the cell viabilities were assessed in at least three independent experiments for every cell culture. Cell survival was calculated using the following formula:(OD of treated cells − OD blank)/(OD of control cells − OD blank) × 100%, where OD blank represents the OD values in wells without cells but with the addition of the MTT and DMSO solutions. The results were presented in the form of cytotoxicity curves, and the graphs were also plotted in a Microsoft Excel program; the calculation of the IC50 half-maximal inhibition concentration values was performed in a GraphPad Prism 6.0 (GraphPad Software Inc., San Diego, CA, USA) program, based on the equations of the cytotoxicity curves.

[3] = test system: HepG2 human liver carcinoma cells; test: MTT cytotoxicity (hepatotoxicity) on HepG2; type: cell-based; conditions: Homo sapiens, HepG2, 24 h
Method: as §1

[4] = test system: MRSA; test: Selectivity index (average IC50 on eukaryotic cells / average MIC on MRSA); type: cell-based, Staphylococcus aureus; conditions: average IC50 on eukaryotic cells divided by average MIC on MRSA
Method: The selectivity index was calculated for each compound as the average IC50 on eukaryotic cells divided by the average MIC on MRSA (Table 2).

[5] = Solubility in water by HPLC; type: physicochemical; conditions: water
Outline: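 Compound (1.0 mg in 10 μL DMSO) mixed with 1.0 mL water, shaken 5 min and centrifuged; supernatant analysed by C18 HPLC. Water concentration derived from peak area relative to an acetonitrile standard at 1.0 mg/mL.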

With `CCOC(=O)c1[nH]c2cc(F)ccc2c1/N=N/N1CCCC1` [BX-SI043, Ethyl (E)-6-fluoro-3-(pyrrolidin-1-yldiazenyl)-1H-indole-2-carboxylate] the “MIC Range Against 8 MRSA Strains” value ([1]; 8 multidrug-resistant MRSA clinical isolates, tested 0.125-1 mg/L) was 0.25 µg/mL (≈ 0.821 µM), the “minimal inhibitory concentration range” value ([1]; 41 multidrug-resistant MRSA strains) was 0.125 to 0.5 µg/mL and the “times lower MIC than either vancomycin or linezolid” value ([1]; MRSA) was 4–8 times. It also gave an MIC ([1]; MRSA, 8 MRSA strains, read-out: lowest MIC values against most tested strains) of 0.25 µg/mL (≈ 0.821 µM), an MIC ([1]; MRSA, Figure 6, MRSA strain 2, read-out: MIC against 8 MRSA strains) of 0.25 µg/mL (≈ 0.821 µM) and an MIC ([1]; MRSA, Figure 6, MRSA strain 7, read-out: MIC against 8 MRSA strains) of 0.25 µg/mL (≈ 0.821 µM). The MIC ([1]; MRSA, Figure 6, MRSA strain 8, read-out: MIC against 8 MRSA strains) was 0.25 µg/mL (≈ 0.821 µM), the MIC ([1]; MRSA, Figure 6, MRSA strain 9, read-out: MIC against 8 MRSA strains) was 0.25 µg/mL (≈ 0.821 µM) and the MIC ([1]; MRSA, Figure 6, MRSA strain 13, read-out: MIC against 8 MRSA strains) was 0.25 µg/mL (≈ 0.821 µM). It also gave an MIC ([1]; MRSA, Figure 6, MRSA strain 21, read-out: MIC against 8 MRSA strains) of 0.25 µg/mL (≈ 0.821 µM), an MIC ([1]; MRSA, Figure 6, MRSA strain 48, read-out: MIC against 8 MRSA strains) of 0.25 µg/mL (≈ 0.821 µM) and an MIC ([1]; MRSA, Figure 6, MRSA strain 50, read-out: MIC against 8 MRSA strains) of 0.25 µg/mL (≈ 0.821 µM). It also gave an MIC ([1]; MRSA, Table S4, MRSA strain 1, read-out: MIC) of 0.25 µg/mL (≈ 0.821 µM), an MIC ([1]; MRSA, Table S4, MRSA strain 2, read-out: MIC) of 0.5 µg/mL (≈ 1.64 µM) and an MIC ([1]; MRSA, Table S4, MRSA strain 3, read-out: MIC) of 0.5 µg/mL (≈ 1.64 µM). For the same compound, the MIC ([1]; MRSA, Table S4, MRSA strain 4, read-out: MIC) was 0.5 µg/mL (≈ 1.64 µM), the MIC ([1]; MRSA, Table S4, MRSA strain 5, read-out: MIC) was 0.25 µg/mL (≈ 0.821 µM) and the MIC ([1]; MRSA, Table S4, MRSA strain 6, read-out: MIC) was 0.5 µg/mL (≈ 1.64 µM). It also gave an MIC ([1]; MRSA, Table S4, MRSA strain 7, read-out: MIC) of 0.5 µg/mL (≈ 1.64 µM), an MIC ([1]; MRSA, Table S4, MRSA strain 8, read-out: MIC) of 0.25 µg/mL (≈ 0.821 µM) and an MIC ([1]; MRSA, Table S4, MRSA strain 9, read-out: MIC) of 0.5 µg/mL (≈ 1.64 µM). It also gave an MIC ([1]; MRSA, Table S4, MRSA strain 10, read-out: MIC) of 0.25 µg/mL (≈ 0.821 µM), an MIC ([1]; MRSA, Table S4, MRSA strain 12, read-out: MIC) of 0.25 µg/mL (≈ 0.821 µM) and an MIC ([1]; MRSA, Table S4, MRSA strain 13, read-out: MIC) of 0.5 µg/mL (≈ 1.64 µM). For the same compound, the MIC ([1]; MRSA, Table S4, MRSA strain 14, read-out: MIC) was 0.25 µg/mL (≈ 0.821 µM), the MIC ([1]; MRSA, Table S4, MRSA strain 15, read-out: MIC) was 0.25 µg/mL (≈ 0.821 µM) and the MIC ([1]; MRSA, Table S4, MRSA strain 16, read-out: MIC) was 0.25 µg/mL (≈ 0.821 µM). It also gave an MIC ([1]; MRSA, Table S4, MRSA strain 17, read-out: MIC) of 0.5 µg/mL (≈ 1.64 µM), an MIC ([1]; MRSA, Table S4, MRSA strain 18, read-out: MIC) of 0.5 µg/mL (≈ 1.64 µM) and an MIC ([1]; MRSA, Table S4, MRSA strain 21, read-out: MIC) of 0.5 µg/mL (≈ 1.64 µM). The MIC ([1]; MRSA, Table S4, MRSA strain 23, read-out: MIC) was 0.5 µg/mL (≈ 1.64 µM), the MIC ([1]; MRSA, Table S4, MRSA strain 24, read-out: MIC) was 0.5 µg/mL (≈ 1.64 µM) and the MIC ([1]; MRSA, Table S4, MRSA strain 25, read-out: MIC) was 0.5 µg/mL (≈ 1.64 µM). It also gave an MIC ([1]; MRSA, Table S4, MRSA strain 26, read-out: MIC) of 0.25 µg/mL (≈ 0.821 µM), an MIC ([1]; MRSA, Table S4, MRSA strain 27, read-out: MIC) of 0.5 µg/mL (≈ 1.64 µM) and an MIC ([1]; MRSA, Table S4, MRSA strain 28, read-out: MIC) of 0.5 µg/mL (≈ 1.64 µM). It also gave an MIC ([1]; MRSA, Table S4, MRSA strain 29, read-out: MIC) of 0.5 µg/mL (≈ 1.64 µM), an MIC ([1]; MRSA, Table S4, MRSA strain 30, read-out: MIC) of 0.5 µg/mL (≈ 1.64 µM) and an MIC ([1]; MRSA, Table S4, MRSA strain 31, read-out: MIC) of 0.5 µg/mL (≈ 1.64 µM). It also gave an MIC ([1]; MRSA, Table S4, MRSA strain 34, read-out: MIC) of 0.125 µg/mL (≈ 0.411 µM), an MIC ([1]; MRSA, Table S4, MRSA strain 35, read-out: MIC) of 0.5 µg/mL (≈ 1.64 µM) and an MIC ([1]; MRSA, Table S4, MRSA strain 36, read-out: MIC) of 0.25 µg/mL (≈ 0.821 µM). It also gave an MIC ([1]; MRSA, Table S4, MRSA strain 40, read-out: MIC) of 0.5 µg/mL (≈ 1.64 µM), an MIC ([1]; MRSA, Table S4, MRSA strain 41, read-out: MIC) of 0.25 µg/mL (≈ 0.821 µM) and an MIC ([1]; MRSA, Table S4, MRSA strain 42, read-out: MIC) of 0.5 µg/mL (≈ 1.64 µM). The MIC ([1]; MRSA, Table S4, MRSA strain 43, read-out: MIC) was 0.5 µg/mL (≈ 1.64 µM), the MIC ([1]; MRSA, Table S4, MRSA strain 44, read-out: MIC) was 0.5 µg/mL (≈ 1.64 µM) and the MIC ([1]; MRSA, Table S4, MRSA strain 45, read-out: MIC) was 0.5 µg/mL (≈ 1.64 µM). The MIC ([1]; MRSA, Table S4, MRSA strain 46, read-out: MIC) was 0.5 µg/mL (≈ 1.64 µM), the MIC ([1]; MRSA, Table S4, MRSA strain 48, read-out: MIC) was 0.5 µg/mL (≈ 1.64 µM) and the MIC ([1]; MRSA, Table S4, MRSA strain 49, read-out: MIC) was 0.25 µg/mL (≈ 0.821 µM). For the same compound, the MIC ([1]; MRSA, Table S4, MRSA strain 50, read-out: MIC) was 0.5 µg/mL (≈ 1.64 µM), the MIC ([1]; MRSA, Table S4, MRSA strain 51, read-out: MIC) was 0.5 µg/mL (≈ 1.64 µM) and the IC50 [2] was 19 µg/mL (≈ 62.4 µM). For the same compound, the IC50 [3] was 19 µg/mL (≈ 62.4 µM), the “Selectivity Index” value [4] was 76 and the solubility at 5 min ([5]; read-out: Solubility in water, mass concentration) was 0.88 µg/mL. The solubility at 5 min ([5]; read-out: Solubility in water, molar concentration) was 3 µM.
